Laboratory results: patent US7973056B2, “Triazole derivative or salt thereof” (Fujifilm Finechemicals Co., Ltd, priority 2008, dated 2011)
In brackets after ≈: the same amount, converted by molar mass. Blank lines part the entries; values can stand above or below the compound they belong to.

Key:
[1] = test system: Candida albicans TIMM 1623; experiment: Antifungal activity test (in vivo), mouse systemic infection model; conditions: for T/C (%): survival time of administration group / control group x100
Protocol: With respect to compounds I-1, I-3 and I-6 obtained in Examples 1, 3 and 6 respectively, therapeutic effects at the time of subcutaneous administration of compounds I-1, I-3 and I-6 on a mouse systemic infection model by Candida albicans TIMM 1623 were tested.
The test was carried out using 5 animals for each of the drug administration groups and Negative control group (sterile physiological saline administration group).
Each of compounds I-1, I-3 and I-6 was dissolved in and diluted with dimethyl sulfoxide (DMSO; Wako Pure Chemical Industries, Ltd.) and then prepared into a predetermined concentration by diluting with sterile physiological saline.
As the control experiment, Fluconazole (FLCZ, Flanos intravenous drip solution 100 mg; TOYAMA CHEMICAL CO, LTD.) diluted to a predetermined concentration with sterile physiological saline was used.
On the next day of the receipt of animals, body weights of mice were measured and CP (crude protein) was intraperitoneally administered at a dose of 200 mg/kg based on the individual body weight, and then they were reared for 3 days.
Cells of C. albicans TIMM 1623 cultured overnight at 35° C. on SDA (Sabouraud dextrose agar; Eiken Chemical Co., Ltd.) plate medium were suspended in sterile physiological saline and used as the Stock solution, and a portion thereof was diluted with 10% formalin (Wako Pure Chemical Industries, Ltd.). The number of cells in the diluted liquid was counted under a biological microscope using a hemocytometer, and then an inoculum was prepared by diluting the stock solution with sterile physiological saline (about 1.5×10^5 cells/ml). By inoculating 0.2 ml of this cell suspension through caudal vein, infection was induced. In this connection, the number of viable cells in the inoculum was verified by spreading the cell suspension optionally diluted with sterile physiological saline on an SDA plate medium and then culturing at 35° C. Each of the substances to be tested, control substance or sterile physiological saline was subcutaneously administered after 2 hours of the infection and for 3 days starting on the next day of infection once a day, a total of 4 times. After measuring individual body weight on the next day of infection, CP was again administered intraperitoneally at a dose of 100 mg/kg. The number of survived mice was observed and recorded for 14 days starting on the next day of infection.
The results were shown in Table 3 below and FIGS. 1A to 1D. In the table, the administration dose of the compounds of the present invention and the comparative compound represents a mg amount per 1 kg of a mouse weight (mg/kg).
Significant deference was tested, by 5% for both sides of the levels of significance, in accordance with the Kaplan-Meier method Logrank test (comparison of multiple groups), on the survival time distribution of each of the substances to be tested and control substance administration groups and sterile physiological saline administration group. SAS release 8.2 (SAS Institute Japan) was used in the Kaplan-Meier method Logrank test. (T/C(%)=[survival time of administration group (integrated value)/survival time of control group (integrated value)]×100)

[2] = test system: Cryptococcus neoformans ATCC 24067; experiment: Antifungal activity test (in vitro), MIC; type: cell-based; conditions: ATCC24067
Protocol: (§1) Minimum inhibitory concentration (MIC) of each of the compounds obtained in Examples 1 to 12 was measured for respective fungi at MOS Pharm Service, by the methods described in Antimicrobial Agents and Chemotherapy, vol. 3, pp. 40-48 (1973), Antimicrobial Agents and Chemotherapy, vol. 33, pp. 215-222 (1989) and Antimicrobial Agents and Chemotherapy, vol. 38, pp. 2362-2368 (1994). The measuring conditions are shown in the following. In this case, Voriconazol was used as a comparative compound. Cryptococcus neoformans ATCC 24067, Pityrosporum ovale ATCC 38593; Cultured at 37° C. for 2 day using fluid Sabouraud medium, and this was used as a cell suspension. Each of the compounds of the invention was adjusted to a concentration of 1% by weight using dimethyl sulfoxide (DMSO) and a medium similar to the respective medium used in the above-mentioned fungal culture, having a final concentration of from 0.001 to 100 μg/ml, was prepared. Each of the inoculation cell suspensions prepared by the above-mentioned methods was inoculated onto this agar plate. […] In this connection, Voriconazol was used as the comparative compound C-1.

[3] = test system: Pityrosporum ovale ATCC 38593; experiment: Antifungal activity test (in vitro), MIC; type: cell-based; conditions: Malassezia furfur, ATCC38593
Protocol: as §1

[4] = test system: Candida albicans ATCC 10231; experiment: Antifungal activity test (in vitro), MIC; type: cell-based; conditions: ATCC10231
Protocol: as §1, with “Candida albicans” for “Cryptococcus neoformans”, “10231 and” for “24067, Pityrosporum ovale”, “44858;” for “38593;”, “20 hours” for “2 day”

[5] = test system: Trichophyton mentagrophytes ATCC 9533; experiment: Antifungal activity test (in vitro), MIC; type: cell-based; conditions: ATCC9533
Protocol: as §1, with “Trichophyton mentagrophytes” for “Cryptococcus neoformans”, “9533;” for “24067, Pityrosporum ovale ATCC 38593;”, “28°” for “37°”, “3 days” for “2 day”

[6] = test system: Aspergillus fumigatus ATCC 1028; experiment: Antifungal activity test (in vitro), MIC; type: cell-based; conditions: ATCC1028
Protocol: Minimum inhibitory concentration (MIC) of each of the compounds obtained in Examples 1 to 12 was measured for respective fungi at MOS Pharm Service, by the methods described in Antimicrobial Agents and Chemotherapy, vol. 3, pp. 40-48 (1973), Antimicrobial Agents and Chemotherapy, vol. 33, pp. 215-222 (1989) and Antimicrobial Agents and Chemotherapy, vol. 38, pp. 2362-2368 (1994). The measuring conditions are shown in the following. In this case, Voriconazol was used as a comparative compound.
Aspergillus fumigatus ATCC 1028; Cultured at 28° C. for 2 days using potato dextrose broth, and this was used as a cell suspension.
Each of the compounds of the invention was adjusted to a concentration of 1% by weight using dimethyl sulfoxide (DMSO) and a medium similar to the respective medium used in the above-mentioned fungal culture, having a final concentration of from 0.001 to 100 μg/ml, was prepared. Each of the inoculation cell suspensions prepared by the above-mentioned methods was inoculated onto this agar plate. […] In this connection, Voriconazol was used as the comparative compound C-1.

[7] = test system: Microsporum canis ATCC 36299; experiment: Antifungal activity test (in vitro), MIC; type: cell-based; conditions: ATCC36299
Protocol: as §1, with “Microsporum canis” for “Cryptococcus neoformans”, “36299;” for “24067, Pityrosporum ovale ATCC 38593;”, “30°” for “37°”, “days” for “day”

SMILES: OC(Cn1cncn1)(Cn1cncn1)c1ccc(F)cc1F [FLCZ, Fluconazole, reference compound]
- survival rate ([1]; 0.1 mg/kg s.c., day 0): 100
- survival rate ([1]; 0.1 mg/kg s.c., day 1): 100
- survival rate ([1]; 0.1 mg/kg s.c., day 2): 100
- survival rate ([1]; 0.1 mg/kg s.c., day 3): 60
- survival rate ([1]; 0.1 mg/kg s.c., day 4): 60
- survival rate ([1]; 0.1 mg/kg s.c., day 5): 60
- survival rate ([1]; 0.1 mg/kg s.c., day 6): 60
- survival rate ([1]; 0.1 mg/kg s.c., day 7): 40
- survival rate ([1]; 0.1 mg/kg s.c., day 8): 40
- survival rate ([1]; 0.1 mg/kg s.c., day 9): 20
- survival rate ([1]; 0.1 mg/kg s.c., day 10): 20
- survival rate ([1]; 0.1 mg/kg s.c., day 11): 20
- survival rate ([1]; 0.1 mg/kg s.c., day 12): 20
- survival rate ([1]; 0.1 mg/kg s.c., day 13): 20
- survival rate ([1]; 0.1 mg/kg s.c., day 14): 20
- T/C (%) ([1]; 0.1 mg/kg s.c.): 119%
- survival rate ([1]; 0.3 mg/kg s.c., day 0): 100
- survival rate ([1]; 0.3 mg/kg s.c., day 1): 100
- survival rate ([1]; 0.3 mg/kg s.c., day 2): 100
- survival rate ([1]; 0.3 mg/kg s.c., day 3): 100
- survival rate ([1]; 0.3 mg/kg s.c., day 4): 100
- survival rate ([1]; 0.3 mg/kg s.c., day 5): 100
- survival rate ([1]; 0.3 mg/kg s.c., day 6): 100
- survival rate ([1]; 0.3 mg/kg s.c., day 7): 80
- survival rate ([1]; 0.3 mg/kg s.c., day 8): 80
- survival rate ([1]; 0.3 mg/kg s.c., day 9): 80
- survival rate ([1]; 0.3 mg/kg s.c., day 10): 80
- survival rate ([1]; 0.3 mg/kg s.c., day 11): 80
- survival rate ([1]; 0.3 mg/kg s.c., day 12): 80
- survival rate ([1]; 0.3 mg/kg s.c., day 13): 80
- survival rate ([1]; 0.3 mg/kg s.c., day 14): 80
- T/C (%) ([1]; 0.3 mg/kg s.c.): 216%
- survival rate ([1]; 1 mg/kg s.c., day 0): 100
- survival rate ([1]; 1 mg/kg s.c., day 1): 100
- survival rate ([1]; 1 mg/kg s.c., day 2): 100
- survival rate ([1]; 1 mg/kg s.c., day 3): 100
- survival rate ([1]; 1 mg/kg s.c., day 4): 100
- survival rate ([1]; 1 mg/kg s.c., day 5): 100
- survival rate ([1]; 1 mg/kg s.c., day 6): 100
- survival rate ([1]; 1 mg/kg s.c., day 7): 100
- survival rate ([1]; 1 mg/kg s.c., day 8): 100
- survival rate ([1]; 1 mg/kg s.c., day 9): 100
- survival rate ([1]; 1 mg/kg s.c., day 10): 100
- survival rate ([1]; 1 mg/kg s.c., day 11): 100
- survival rate ([1]; 1 mg/kg s.c., day 12): 100
- survival rate ([1]; 1 mg/kg s.c., day 13): 80
- survival rate ([1]; 1 mg/kg s.c., day 14): 80
- T/C (%) ([1]; 1 mg/kg s.c.): 235%

- MIC [2]: 0.3 µg/mL (≈ 0.709 µM)
- MIC [3]: 1 µg/mL (≈ 2.36 µM)
- MIC [4]: 0.1 µg/mL (≈ 0.236 µM)
- MIC [5]: 30 µg/mL (≈ 70.9 µM)
- MIC [6]: 100 µg/mL (≈ 236 µM)
- MIC [7]: 10 µg/mL (≈ 23.6 µM)
SMILES: C[C@@H](n1ccc(-c2ccccn2)cc1=O)[C@](O)(Cn1cncn1)c1ccc(F)cc1F [I-8, 1′-[(1R,2R)-2-(2,4-difluorophenyl)-2-hydroxy-1-methyl-3-(1,2,4-triazol-1-yl)propyl]-2,4′-bipyridin-2′-one]

- MIC [2]: 0.3 µg/mL (≈ 0.683 µM)
- MIC [3]: 0.1 µg/mL (≈ 0.228 µM)
- MIC [4]: 100 µg/mL (≈ 228 µM)
- MIC [5]: 10 µg/mL (≈ 22.8 µM)
- MIC [6]: 100 µg/mL (≈ 228 µM)
- MIC [7]: 10 µg/mL (≈ 22.8 µM)
SMILES: Cc1ccc(C2=CCCN([C@H](C)[C@](O)(Cn3cncn3)c3ccc(F)cc3F)C2)nc1C [I-11, (2R,3R)-2-(2,4-difluorophenyl)-3-(5,6-dimethyl-5′,6′-dihydro-2,3′-bipyridin-1′(2′H)-yl)-1-(1,2,4-triazol-1-yl)butan-2-ol]
